Source: publication PMC12274840 (The Journal of Biological Chemistry, 2025)
Values after ≈ are worked out from the molar mass of the structure shown. Like-named read-outs stand apart in the source and are kept apart here.

Columns and labels:
[1] = system: E. coli KA797 cells carrying pUK21 with CTX-M-14 WT (Tat); experiment: microbe, parasite or virus in culture; type: cell-based; conditions: Escherichia coli, antibiotic alone
[2] = system: E. coli KA797 cells carrying BlaC position 105 library; type: cell-based, Escherichia coli; conditions: for Fi AVG (average fitness): relative to WT Ile; for Fi AVG (average fitness) / Fi MEM AVG: average of replicates; for Fi MEM AVG / Fi MEM 1 / Fi MEM 2 / Fi MEM 3 / Significance (Fi MEM AVG): meropenem; for Fi MEM 1: replicate 1; for Fi MEM 2: replicate 2; for Fi MEM 3: replicate 3

C[C@@H](O)[C@H]1C(=O)N2C(C(=O)O)=C(S[C@@H]3CN[C@H](C(=O)N(C)C)C3)[C@H](C)[C@H]12 [meropenem]
MIC [1]: 0.1 µg/mL (≈ 0.261 µM) | Fi AVG (average fitness) ([2]; AA 105 Ala (BlaC I105A)): -0.028 | Fi MEM AVG ([2]; AA 105 Ala): -0.183 | Fi MEM 1 ([2]; AA 105 Ala): -0.183 | Fi MEM AVG ([2]; AA 105 Arg): -0.097 | Fi MEM 1 ([2]; AA 105 Arg): 0.189 | Fi MEM 2 ([2]; AA 105 Arg): 0.262 | Fi MEM 3 ([2]; AA 105 Arg): -0.743 | Fi AVG (average fitness) ([2]; AA 105 Asn (BlaC I105N)): -0.021 | Fi MEM AVG ([2]; AA 105 Asn): -0.526 | Fi MEM 1 ([2]; AA 105 Asn): 0.793 | Fi MEM 2 ([2]; AA 105 Asn): -1.824 | Fi MEM 3 ([2]; AA 105 Asn): -0.547 | Fi AVG (average fitness) ([2]; AA 105 Asp (BlaC I105D)): -0.059 | Significance (Fi MEM AVG) ([2]; AA 105 Asp): - | Fi MEM AVG ([2]; AA 105 Asp): -1.181 | Fi MEM 1 ([2]; AA 105 Asp): -1.339 | Fi MEM 2 ([2]; AA 105 Asp): -1.644 | Fi MEM 3 ([2]; AA 105 Asp): -0.561 | Fi MEM AVG ([2]; AA 105 Cys): -0.623 | Fi MEM 1 ([2]; AA 105 Cys): -1.368 | Fi MEM 2 ([2]; AA 105 Cys): 1.109 | Fi MEM 3 ([2]; AA 105 Cys): -1.611 | Fi AVG (average fitness) ([2]; AA 105 Gln (BlaC I105Q)): -0.020 | Fi MEM AVG ([2]; AA 105 Gln): -1.909 | Fi MEM 2 ([2]; AA 105 Gln): -1.909 | Fi AVG (average fitness) ([2]; AA 105 Glu (BlaC I105E)): -0.058 | Significance (Fi MEM AVG) ([2]; AA 105 Glu): - | Fi MEM AVG ([2]; AA 105 Glu): -1.296 | Fi MEM 1 ([2]; AA 105 Glu): -1.915 | Fi MEM 2 ([2]; AA 105 Glu): 0.069 | Fi MEM 3 ([2]; AA 105 Glu): -2.043 | Fi AVG (average fitness) ([2]; AA 105 Gly (BlaC I105G)): -0.019 | Significance (Fi MEM AVG) ([2]; AA 105 Gly): - | Fi MEM AVG ([2]; AA 105 Gly): -1.447 | Fi MEM 1 ([2]; AA 105 Gly): -0.905 | Fi MEM 2 ([2]; AA 105 Gly): -2.832 | Fi MEM 3 ([2]; AA 105 Gly): -0.603 | Fi MEM AVG ([2]; AA 105 His): 0.129 | Fi MEM 1 ([2]; AA 105 His): 1.220 | Fi MEM 2 ([2]; AA 105 His): -0.828 | Fi MEM 3 ([2]; AA 105 His): -0.00649 | Fi MEM AVG ([2]; AA 105 Ile (WT)): 0.000 | Fi MEM 1 ([2]; AA 105 Ile (WT)): 0.000 | Fi MEM 2 ([2]; AA 105 Ile (WT)): 0.000 | Fi MEM 3 ([2]; AA 105 Ile (WT)): 0.000 | Significance (Fi MEM AVG) ([2]; AA 105 Leu): - | Fi MEM AVG ([2]; AA 105 Leu): -1.047 | Fi MEM 1 ([2]; AA 105 Leu): -0.470 | Fi MEM 2 ([2]; AA 105 Leu): -1.669 | Fi MEM 3 ([2]; AA 105 Leu): -1.001 | Significance (Fi MEM AVG) ([2]; AA 105 Lys): - | Fi MEM AVG ([2]; AA 105 Lys): -2.317 | Fi MEM 1 ([2]; AA 105 Lys): -1.936 | Fi MEM 2 ([2]; AA 105 Lys): -2.755 | Fi MEM 3 ([2]; AA 105 Lys): -2.261 | Fi MEM AVG ([2]; AA 105 Met): -0.579 | Fi MEM 1 ([2]; AA 105 Met): -0.023 | Fi MEM 2 ([2]; AA 105 Met): -0.087 | Fi MEM 3 ([2]; AA 105 Met): -1.628 | Significance (Fi MEM AVG) ([2]; AA 105 Phe): - | Fi MEM AVG ([2]; AA 105 Phe): -1.123 | Fi MEM 1 ([2]; AA 105 Phe): -0.896 | Fi MEM 2 ([2]; AA 105 Phe): -1.005 | Fi MEM 3 ([2]; AA 105 Phe): -1.468 | Fi AVG (average fitness) ([2]; AA 105 Pro (BlaC I105P)): -0.044 | Significance (Fi MEM AVG) ([2]; AA 105 Pro): - | Fi MEM AVG ([2]; AA 105 Pro): -1.653 | Fi MEM 1 ([2]; AA 105 Pro): -2.435 | Fi MEM 2 ([2]; AA 105 Pro): 0.050 | Fi MEM 3 ([2]; AA 105 Pro): -2.575 | Significance (Fi MEM AVG) ([2]; AA 105 Ser): -
